Read-outs that look alike come from different tables or passages of the source.
What was measured:
[1] = Critical micelle concentration; format: physicochemical
[2] = Stabilization of aqueous dispersion of cholesterol particles, visual appearance; format: physicochemical; conditions: 1% cholesterol in 0.1% w/w (3 mM) dodecyl betainate solution
Procedure: The ability of dodecyl betainate to stabilize aqueous dispersions of hydrophobic particles was investigated in samples containing 1% cholesterol (of lanolin origin, Fluka) in pure water and in dodecyl betainate solutions of varying concentration. The samples were prepared by weighing the components into screw-capped glass vials that were first shaken, then kept in an ultrasonic bath for 5 minutes and finally shaken again before left for inspection. The table below presents the visual appearance of samples with different surfactant concentrations at different times.

[3] = test system: intestinal mucosa (small intestine segments)
Text: (§1) A modified Using diffusion chamber with an exposed tissue area 1.78 cm^2 was used in the experiments. 15 to 20 cm of the small intestine, distal to the Ligament of Treitz was removed from rats (male Sprague-Dawley, 400-500 g) and used in the tests. Three rats and three segments per rat were included in each experimental group. The passage of different marker molecules, ^14C-mannitol and FITC-dextran (4400 FD4), from the mucosal to the serosal chamber were expressed as apparent permeability coefficient (Papp). The apparent permeability coefficient (Papp) to mannitol and FITC-dextran 4.400 across the intestinal mucosa was calculated from the equation: Papp (cm/s)×10-6)=dc/dt * (V/(A*C0)), where dc/dt is the change of the serosal concentration over time (mol/L/sec), V is the volume in the reservoir of the serosal side (cm^3), CO is the initial concentration of the marker in the mucosal reservoir (mol/L), and A is the exposed intestinal area in the chamber (cm^2) .
(§2) The difference in electric potential over the segments was measured before and after the experiment.

[4] = test system: intestinal mucosa (small intestine segments); experiment: Using (Ussing) diffusion chamber experiments, passage of marker molecules across rat small intestine; conditions: betaine ester containing solution (0.5 % w/w) compared to control
Text: as §1, §2

[5] = format: physicochemical; conditions: buffer
Text: Surface-active betaine esters are even more susceptible to alkaline hydrolysis than non-surface active esters. The reason for the increased reactivity of surface-active betaine esters is that the ester bond will hydrolyse more readily when the surfactants are in the form of aggregates, i.e. micelles. Like all other surfactants, surface-active betaine esters form micelles at a certain concentration, the CMC, and further increase of the surfactant concentration just leads to the formation of more micelles; the concentration of free surfactant molecules stays constant. In the vast majority of applications of cationic surfactants the concentration is far above the CMC, which means that almost all surfactants are in an aggregated form. The micelles of betaine ester surfactants are highly positively charged since all the quaternary ammonium groups are located at the surface of the aggregate. The positive charges must be compensated for by negatively charged ions, so-called counterions. All types of negative ions present in the solution, including hydroxyl ions, will accumulate at the micelle surface. This means that the local concentration of hydroxyl ions will be higher in the vicinity of the micelle than in the bulk, or, differently expressed, the local pH around the micelles will be higher than in the bulk. […]

Procedure for Erythrocytes from rats: Erythrocytes from rats were washed 3 times and suspended in saline solution (0.9%) to a volume fraction of 0.025. The hemolys experiments were performed by mixing the erythrocyte suspension with surfactant solutions in a 1:1 ratio, thereby giving a finale erythrocyte volume fraction of 0.0125 and a surfactant concentration as stated in the figure. The samples were then incubated at 37° C. for 1 hour and centrifuged at 2000 g for 10 minutes. Aliquots of the supernatant was mixed with an equal volume of 15 mM C14TAC before the hemoglobin content was measured spectrophotometrically on a Lab systems iEMS Reader MF at 540 nm.
The concentrate was dispersed in saline solution by gentle stirring at room temperature just before the experiment. The resulting aqueous dispersion was tested in the same way as stated above for the surfactant solution.
The concentrations given in the figure represent the amounts of cationic surfactant in the tested solutions. […] The phosphatidyl choline used is Epikuron 200 from Degussa BioActives, a pharmaceutical grade product of soybean origin. All data are normalized to the absorbance obtained from hemolysis by the 0.5 mM tetradecyltrimethylammonium chloride sample.

With `CCCCCCCCCCCCCC[N+](C)(C)C.[Cl-]` [C14TAC, tetradecyltrimethylammonium chloride, reference compound] the “critical micelle concentration (CMC)” value [1] was 2.5 mM.

With `CCCCCCCCCCCCOC(=O)C[N+](C)(C)C` [dodecyl betainate] the “critical micelle concentration (CMC)” value [1] was 3.1 mM, the “Visual appearance after 5 min.” value [2] was “Turbid dispersion” and the “permeability of intestinal segments for marker molecules” value [3] was “not affected”. For the same compound, the “toxicity to red blood cells (relative haemolytic effect)” value (Erythrocytes from rats; at low concentrations, 37° C., 1 hour, compared with C14TAC) was “lower than that of the stable surfactant C14TAC”, the “toxicity to red blood cells (relative haemolytic effect)” value (Erythrocytes from rats; betaine ester co-formulated with phosphatidyl choline (weight ratio 20 to 80)) was “further lowered” and the “damage to segments, potential difference over the segments before and after treatment” value [4] was “no increased damage”. The “half-life (hydrolysis)” value [5] was 1.5 h.

For `CCOC(=O)C[N+](C)(C)C` [ethyl betainate, reference compound], the “half-life (hydrolysis)” value [5] was 9 h.

From US20070031485A1, “Pharmaceutical composition having a cationic excipient” (priority 2003, published 2007)
